The nature of data set [1]: Therapeutic index, ratio of IC50 for cytotoxicity against human H9 cells to EC50 for antiviral activity against HIV-1 infected in H9 cells. The settings on record: read-out: Ratio IC50/EC50. The data set is classed as toxicity, cell-based.
Data set [2] concerns Human immunodeficiency virus 1. Put plainly: Antiviral activity against HIV-1 infected in human H9 cells. The data set is classed as functional, organism-based. The settings on record: Human immunodeficiency virus 1, H9; read-out: EC50.
For data set [3], the target named is T1, Human immunodeficiency virus type 1 protease (Human immunodeficiency virus 1, UniProt Q72874). Put plainly: (§1) Inhibition of HIV-1 protease.
Data set [4] is described as follows: Binding affinity to HIV protease assessed as inhibition constant. Set-up: species or system Human immunodeficiency virus.
Data set [5] deals with Human immunodeficiency virus 1. Put plainly: Antiviral activity against HIV-1 infected in human Jurkat cells. It is filed as functional, organism-based. The settings on record: Human immunodeficiency virus 1, Jurkat.
A short description of data set [6]: Inhibition of Hepatitis C virus NS5B polymerase. Also on record: species or system Hepacivirus hominis.
In data set [7] the target is Human immunodeficiency virus type 1 protease (Human immunodeficiency virus 1) (UniProt Q72874). The data set is described as §1.
For another data set, the system named is Human alphaherpesvirus 1. Put plainly: Antiviral activity against Herpes simplex virus 1. The data set is classed as functional, organism-based.
For data set [8], the system named is Human immunodeficiency virus. Kind of data set: Antiviral activity against HIV infected in human H9 cells. The data set is classed as functional, organism-based. The settings on record: Human immunodeficiency virus 1, H9; read-out: EC50.
In data set [9] the target is Human immunodeficiency virus type 1 reverse transcriptase (Human immunodeficiency virus 1, UniProt Q72547). Kind of data set: Inhibition of HIV1 reverse transcriptase.
In a further data set the test system is MT4. Kind of data set: Cytotoxicity against human MT4 cells by MTT assay. The data set is classed as functional. The settings on record: read-out: TD50 (the source's name). On the technique in general: Formazan colour is commonly taken as a measure of viable cells.
For data set [10], the system named is Human immunodeficiency virus 1. Put plainly: Antiviral activity against HIV-1 IIIB infected in human MT4 cells. The data set is classed as functional, organism-based. The settings on record: Human immunodeficiency virus 1, IIIB.
Data set [11] relates to Human immunodeficiency virus. Put plainly: Antiviral activity against HIV. The settings on record: Human immunodeficiency virus 1. The data set is classed as functional, organism-based.
The test system of another data set is Hepatitis C virus. Put plainly: Antiviral activity against HCV assessed as inhibition of RNA replication. It is filed as functional, organism-based, Hepacivirus hominis.
Data set [12] relates to Human immunodeficiency virus 1. Put plainly: Antiviral activity against HIV-1. The data set is classed as functional, organism-based.
Data set [13] addresses T1, Human immunodeficiency virus type 1 protease. Kind of data set: Binding affinity to HIV-1 protease assessed as inhibition constant.
In data set [14] the test system is Human immunodeficiency virus 1. Put plainly: Antiviral activity against HIV-1 infected in CEM-SS cells. The data set is classed as functional, organism-based. The settings on record: Human immunodeficiency virus 1, CEM-SS.

≈ marks a conversion by molar mass, not a printed value.

Turning to `CC(=O)O[C@@H]1C(OCC(C)C)c2c(ccc3ccc(=O)oc23)OC1(C)C` (single isomer, unassigned), the selectivity ratio in [1] turned out to be 30.6. Also, the EC50 in data set [2] is 2260 nM. Molecule `CCCC1(CCC)CC(O)=C(C(c2ccccc2)C2CC2)C(=O)O1` (centres undefined) returned an IC50 in data set [3] of 5 µM. Take `CCC(c1cccc(NC(=O)CNC(=O)OC(C)(C)C)c1)c1c(O)c2ccccc2oc1=O` (centres undefined): the inhibition constant Ki in data set [4] was determined as 160 nM. As for `Cc1cc(=O)oc2c3c(ccc12)OC(C)(C)[C@H](OC(=O)C12CCC(C)(C(=O)O1)C2(C)C)[C@@H]3OC(=O)[C@@]12CC[C@](C)(C(=O)O1)C2(C)C`, in data set [2], the EC50 was found to be 0.00183 nM. In the case of `CC(C)=CCc1c(O)c(C(=O)C(C)C)c(O)c2c(-c3ccccc3)cc(=O)oc12` [MESUOL], in [5], the midpoint of inhibition, the IC50, lay at 2000 nM. In data set [6], `COc1cc2oc(=O)c3c4cc(OC)c(O)cc4oc3c2cc1O` registered an IC50 of 311 µM. Turning to `CC(C)=CCc1c(O)c(C(=O)C(C)C)c2oc(=O)cc(-c3ccccc3)c2c1O` [ISOMESUOL], the IC50 in data set [5] stood at 2000 nM. In other words, the single-digit micromolar range.

As for `O=c1oc2ccccc2c(O)c1C(c1ccc2c(c1)OCO2)c1c(O)c2ccccc2oc1=O`, the ID50 in data set [7] is 30 µM. As for `COc1ccc(/C=N\NC(=O)COc2cc(=O)oc3ccccc23)cc1`, the MIC against Human alphaherpesvirus 1 was 200 µg/mL (≈ 568 µM). `CCC(c1cccc(NC(=O)CCNC(=O)OC(C)(C)C)c1)c1c(O)c2ccccc2oc1=O` (centres undefined): the Ki in data set [4] amounted to 280 nM. Molecule `COc1cc2c(cc1O)oc1c3ccc(O)cc3oc(=O)c21` showed an IC50 in [6] of 174 µM. Consider `CC(C)(O)C(O)COc1c2ccoc2cc2oc(=O)ccc12` (centres undefined), for which the EC50 in data set [8] turned out to be 10 µg/mL (≈ 32.9 µM). In data set [7], `CCCCCCc1cc2c(O)c(C(c3ccccc3)c3c(O)c4cc(CCCCCC)c(O)cc4oc3=O)c(=O)oc2cc1O` showed an ID50 of 0.32 µM. As for `CCCc1cc(=O)oc2c3c(c4c(c12)OC(C)(C)C=C4)O[C@H](C)[C@H](C)[C@@H]3O` [CALANOLIDE C], in [9], the IC50 was 30 µM. In data set [9], `Cc1cc(=O)oc2c3c(c4c(c12)OC(C)(C)C=C4)O[C@H](C)[C@@H](C)[C@H]3O` yielded an IC50 of 19 µM.

For the molecule `COc1c2ccoc2cc2oc(=O)ccc12` [BERGAPTEN], in data set [8], the EC50 is 0.354 µg/mL (≈ 1.64 µM). Still for that read-out and setting: under `CC(C)(O)C(O)COc1c2occc2cc2ccc(=O)oc12` (centres undefined) stands 0.115 µg/mL (≈ 0.378 µM). On to `CCC(c1cccc(NC(=O)[C@@H]2CCCN2C(=O)OC(C)(C)C)c1)c1c(O)c2ccccc2oc1=O` (some centres undefined), for which the Ki in [4] worked out at 3600 nM.

With `CC(C)(Cl)C(O)COc1c2occc2cc2ccc(=O)oc12` (centres undefined), in data set [8], the EC50 was determined as 2.25 µg/mL (≈ 6.97 µM). Regarding `CCC(Cc1ccccc1)c1cc(O)c(C(c2cccc(NC(=O)[C@H](Cc3c[nH]cn3)NC(=O)OC(C)(C)C)c2)C2CC2)c(=O)o1` (some centres undefined), the CC50 with MT4 is at least 30 µM. In data set [10], this molecule had an IC50 of 3000 nM.

As to `O=c1ccc2cc3ccoc3cc2o1` [PSORALEN], the EC50 in data set [8] amounted to 0.1 µg/mL (≈ 0.537 µM).

Regarding `CCC(c1ccccc1)c1c(O)c2ccccc2oc1=O` (centres undefined) [PHENPROCOUMON], the Ki in [4] amounted to 1000 nM. Moreover, in data set [11] (read-out: ED50 (the source's name)), the EC50 is 100 µM. With `C/C=C(\C)O[C@@H]1c2c(ccc3ccc(=O)oc23)OC(C)(C)[C@@H]1OC(C)=O`, the EC50 in [2] was found to be 4600 nM. For the molecule `COc1ccc2c(O)c(-c3ccccc3)c(=O)oc2c1`, 23.8 µM corresponded to half-maximal inhibition in [11] (IC50). On to `O=C(O)CCCCC1(c2ccccc2)CC(O)=C(SCCc2ccccc2)C(=O)O1` (centres undefined), for which half-maximal inhibition in data set [3] (IC50) was put at 5 µM. As for `O=c1oc2ccc(Br)cc2cc1CSc1nc2cc(F)ccc2[nH]1`, in the data set with Hepatitis C virus, the EC50 came out at 3.4 µM. Regarding `CC1(C)OC1COc1c2ccoc2cc2oc(=O)ccc12` (centres undefined), the EC50 in data set [8] worked out at 1 µg/mL (≈ 3.49 µM). In turn, `Cc1cc(=O)oc2c1ccc1oc(C(=O)c3ccccc3)c(-c3ccccc3)c12` registered an EC50 in data set [12] of 1.3 nM. In data set [7], `CC(C)c1cccc(C(C)C)c1NC(=O)C(=O)CC(=O)CC(c1ccccc1)c1c(O)c2ccccc2oc1=O` (centres undefined) had an ID50 of 31 µM. `O=c1oc2cc(O)ccc2c(O)c1C(c1ccc2ccccc2c1)c1c(O)c2ccc(O)cc2oc1=O` registered an IC50 in data set [3] of 4.2 µM. As to `CC1(C)OC1COc1c2occc2cc2ccc(=O)oc12` (centres undefined), in data set [8], the EC50 is 2.37 µg/mL (≈ 8.28 µM).

With `CCC(Cc1ccccc1)c1cc(O)c(C(c2cccc(N[C@@H](C)C(=O)OC(C)(C)C)c2)C2CC2)c(=O)o1` (some centres undefined), the Ki in [13] worked out at 15 nM. For `CC(C)(C)OC(=O)NC(Cc1c[nH]cn1)C(=O)Nc1cccc(C(c2c(O)c3c(oc2=O)CCCCCC3)C2CC2)c1` (centres undefined), the Ki in data set [4] came to 3 nM.

Regarding `CCC(c1ccccc1)c1c(O)c2c(oc1=O)CCC2` (centres undefined), the Ki in [4] was found to be 700 nM.

Consider `CCCc1cc(=O)oc2c3c(c4c(c12)OC(C)(C)C=C4)O[C@H](C)[C@@H](C)[C@H]3O` [(+)-CALANOLIDE B], for which the EC50 in data set [14] turned out to be 400 nM. For the same molecule, 15 µM corresponded to half-maximal inhibition in data set [9] (IC50).

As usually defined, the IC50 is the concentration needed to halve the response being measured. For orientation: Ki means a dissociation constant, usually derived from enzyme kinetics or from competition with a known ligand.
